Experimental data taken from ChEMBL document CHEMBL1201862, “PubChem BioAssay data set” (2004).
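Compound exposure: 48 hours, 5 concentrations, 96-well plates. GI50: concentration for 50% inhibition of growth.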 Activity calls are given as the source filed them. Cut-off read from the data, not from the text of the source: active = GI50 up to about 1.1 µM and inactive = higher.

Assays:
Assay in all cases: NCI anticancer screen, dose series, 48 h
SF-268 = test system: SF-268
UACC-62 = test system: UACC-62
786-0 = test system: 786-0
HT-29 = test system: HT-29
SNB-75 = test system: SNB-75
Malme-3M = test system: Malme-3M
COLO 205 = test system: COLO 205
SN12C = test system: SN12C
RPMI-8226 = test system: RPMI-8226
M14 = test system: M14
MDA-MB-435 = test system: MDA-MB-435
NCI-H226 = test system: NCI-H226
RXF 393 = test system: RXF 393
Hs-578T = test system: Hs-578T
SNB-19 = test system: SNB-19
U-251 = test system: U-251
A549 = test system: A549
OVCAR-4 = test system: OVCAR-4
NCI-H522 = test system: NCI-H522
UO-31 = test system: UO-31

| Structure (SMILES) | GI50 (SF-268) | GI50 (UACC-62) | GI50 (786-0) | GI50 (HT-29) | GI50 (SNB-75) | GI50 (Malme-3M) | GI50 (COLO 205) | GI50 (SN12C) | GI50 (RPMI-8226) | GI50 (M14) | GI50 (MDA-MB-435) | GI50 (NCI-H226) | GI50 (RXF 393) | GI50 (Hs-578T) | GI50 (SNB-19) | GI50 (U-251) | GI50 (A549) | GI50 (OVCAR-4) | GI50 (NCI-H522) | GI50 (UO-31) |
| --- | --- | --- | --- | --- | --- | --- | --- | --- | --- | --- | --- | --- | --- | --- | --- | --- | --- | --- | --- | --- |
| Nc1cc(Cl)ccc1SSc1ccc(Cl)cc1N | 14.7 µM (inactive) | 2.88 µM (inactive) | 13.2 µM (inactive) | 16.1 µM (inactive) | 16.8 µM (inactive) | 15.7 µM (inactive) | 16.8 µM (inactive) | 11.9 µM (inactive) | 3.72 µM (inactive) | 8.65 µM (inactive) | 12.9 µM (inactive) | 2.94 µM (inactive) | 10.3 µM (inactive) | 8.79 µM (inactive) | 22.6 µM (inactive) | 4.15 µM (inactive) | 23.1 µM (inactive) | 13.6 µM (inactive) | 7.57 µM (inactive) | 7 µM (inactive) |
| Cc1[nH]c2ccccc2c1-c1cc(-c2cc(-c3c(C)[nH]c4ccccc34)on2)no1 | 52.7 µM (inactive) | 51.4 µM (inactive) | 92 µM (inactive) | 42.6 µM (inactive) | 18.2 µM (inactive) | 63.7 µM (inactive) | 84.1 µM (inactive) | > 100 µM (inactive) | 85.1 µM (inactive) | 37.7 µM (inactive) | 25.8 µM (inactive) | 98.4 µM (inactive) | 37.7 µM (inactive) | 37.2 µM (inactive) | > 100 µM (inactive) | 77.8 µM (inactive) | > 100 µM (inactive) | > 100 µM (inactive) | 34.3 µM (inactive) | 46.6 µM (inactive) |
| COc1cc2cc3c4c(cc(OC)c(OC)c4c2cc1OC)CCN3C | 8.53 µM (inactive) | 4.83 µM (inactive) | 4.29 µM (inactive) | 6.89 µM (inactive) | 8.13 µM (inactive) | 8.53 µM (inactive) | 7.64 µM (inactive) | 7.38 µM (inactive) | 2.72 µM (inactive) | 6.9 µM (inactive) | 5.56 µM (inactive) | 7.35 µM (inactive) | 1.83 µM (inactive) | 2.63 µM (inactive) | 12.5 µM (inactive) | 3.58 µM (inactive) | 9.53 µM (inactive) | 2.51 µM (inactive) | 2.58 µM (inactive) | 2.11 µM (inactive) |
| C/C(=C\CO)CC[C@@H]1[C@@]2(C)CCCC(C)(C)[C@@H]2CC[C@@]1(C)O | 17.7 µM (inactive) | 14.1 µM (inactive) | 20.4 µM (inactive) | 21.3 µM (inactive) | 17.7 µM (inactive) | 19.7 µM (inactive) | 17.7 µM (inactive) | 17.5 µM (inactive) | 17.2 µM (inactive) | 23.4 µM (inactive) | 18.3 µM (inactive) | 18.5 µM (inactive) | 17.6 µM (inactive) | 24 µM (inactive) | 21.3 µM (inactive) | 17.3 µM (inactive) | 29.6 µM (inactive) | 17.3 µM (inactive) | 16.7 µM (inactive) | 23.4 µM (inactive) |
| N#Cc1c(Nc2ccccc2)[n+]([O-])c2ccc(Cl)cc2[n+]1[O-] | 4.38 µM (inactive) | 3.71 µM (inactive) | 5.25 µM (inactive) | 3.05 µM (inactive) | 25.9 µM (inactive) | 7.59 µM (inactive) | 2.33 µM (inactive) | 4.49 µM (inactive) | 3.28 µM (inactive) | 7.57 µM (inactive) | 8.99 µM (inactive) | 4.67 µM (inactive) | 9.77 µM (inactive) | 16.6 µM (inactive) | 5.51 µM (inactive) | 3.15 µM (inactive) | 9.86 µM (inactive) | 1.56 µM (inactive) | 2.16 µM (inactive) | 2.89 µM (inactive) |
| C=C1CCc2ccccc2C1=O | > 100 µM (inactive) | > 100 µM (inactive) | > 100 µM (inactive) | 47.2 µM (inactive) | > 100 µM (inactive) | > 100 µM (inactive) | > 100 µM (inactive) | > 100 µM (inactive) | > 100 µM (inactive) | > 100 µM (inactive) | 29.3 µM (inactive) | > 100 µM (inactive) | > 100 µM (inactive) | > 100 µM (inactive) | > 100 µM (inactive) | > 100 µM (inactive) | > 100 µM (inactive) | > 100 µM (inactive) | > 100 µM (inactive) | > 100 µM (inactive) |
| CN(C)/C=N\c1cccc2cnccc12 | > 100 µM (inactive) | > 100 µM (inactive) | > 100 µM (inactive) | > 100 µM (inactive) | 44.8 µM (inactive) | > 100 µM (inactive) | > 100 µM (inactive) | > 100 µM (inactive) | > 100 µM (inactive) | > 100 µM (inactive) | > 100 µM (inactive) | > 100 µM (inactive) | > 100 µM (inactive) | > 100 µM (inactive) | > 100 µM (inactive) | > 100 µM (inactive) | > 100 µM (inactive) | > 100 µM (inactive) | > 100 µM (inactive) | > 100 µM (inactive) |
| CC1=C(C(=O)Nc2ccccc2C)C(c2ccc(C3C(C(=O)Nc4ccccc4C)=C(C)NC(C)=C3C(=O)Nc3ccccc3C)cc2)C(C(=O)Nc2ccccc2C)=C(C)N1 | 2.58 µM (inactive) | 2.03 µM (inactive) | 3.47 µM (inactive) | 2.03 µM (inactive) | 14.4 µM (inactive) | 2.19 µM (inactive) | 3.7 µM (inactive) | 1.71 µM (inactive) | 2.51 µM (inactive) | 2.82 µM (inactive) | 4.32 µM (inactive) | 14.1 µM (inactive) | 4.31 µM (inactive) | 14 µM (inactive) | 11.9 µM (inactive) | 2.25 µM (inactive) | 10.8 µM (inactive) | 8.99 µM (inactive) | 1.89 µM (inactive) | 13.4 µM (inactive) |
| O=C(O)CC[P+](c1ccccc1)(c1ccccc1)c1ccccc1 | 31.3 µM (inactive) | 22.3 µM (inactive) | 30.6 µM (inactive) | 15.4 µM (inactive) | 28.4 µM (inactive) | 16.3 µM (inactive) | 14.3 µM (inactive) | 16.9 µM (inactive) | 3.21 µM (inactive) | 23.1 µM (inactive) | 26.5 µM (inactive) | 53.5 µM (inactive) | > 100 µM (inactive) | 48.3 µM (inactive) | 24.2 µM (inactive) | 23.2 µM (inactive) | 45.4 µM (inactive) | 46.2 µM (inactive) | 24.5 µM (inactive) | > 100 µM (inactive) |
| Cc1cc2c(cc1Cl)SC(NNC(=O)c1ccco1)=NS2(=O)=O | > 10 µM (inactive) | > 10 µM (inactive) | > 10 µM (inactive) | > 10 µM (inactive) | > 10 µM (inactive) | > 10 µM (inactive) | > 10 µM (inactive) | > 10 µM (inactive) | > 10 µM (inactive) | > 10 µM (inactive) | > 10 µM (inactive) | > 10 µM (inactive) | > 10 µM (inactive) | > 10 µM (inactive) | > 10 µM (inactive) | > 10 µM (inactive) | > 10 µM (inactive) | > 10 µM (inactive) | > 10 µM (inactive) | > 10 µM (inactive) |
| COc1cc2oc(=O)cc(C)c2cc1[N+](=O)[O-] | 17.5 µM (inactive) | 16.1 µM (inactive) | 17.5 µM (inactive) | 23.1 µM (inactive) | 57.5 µM (inactive) | 20.1 µM (inactive) | 23.9 µM (inactive) | 16.4 µM (inactive) | 27 µM (inactive) | 16.7 µM (inactive) | 20.1 µM (inactive) | 8.77 µM (inactive) | 15.1 µM (inactive) | 28.2 µM (inactive) | > 83.6 µM (inactive) | 37.4 µM (inactive) | > 90.4 µM (inactive) | 35.1 µM (inactive) | 11.6 µM (inactive) | 34.4 µM (inactive) |
| C=C1C(=O)OC2/C=C(\C)C(O)CC(O)C(C)(O)CC(OC(=O)/C(C)=C/C)C12 (stereo not given) | 42.3 µM (inactive) | 33.7 µM (inactive) | 41.5 µM (inactive) | 39.6 µM (inactive) | 38.2 µM (inactive) | 50 µM (inactive) | 57.8 µM (inactive) | 39.8 µM (inactive) | 23 µM (inactive) | 60.1 µM (inactive) | 36.5 µM (inactive) | 33.4 µM (inactive) | > 60.1 µM (inactive) | 44.2 µM (inactive) | 66.5 µM (inactive) | 38.1 µM (inactive) | 53.6 µM (inactive) | 45.2 µM (inactive) | 28.1 µM (inactive) | 44.6 µM (inactive) |
| CC(C)C[C@H](NC(=O)[C@H](Cc1ccccc1)NC(=O)CCc1ccccc1)B(O)O | < 0.01 µM (active) | < 0.01 µM (active) | < 0.01 µM (active) | < 0.01 µM (active) | < 0.01 µM (active) | < 0.01 µM (active) | < 0.01 µM (active) | < 0.01 µM (active) | < 0.01 µM (active) | < 0.01 µM (active) | < 0.01 µM (active) | < 0.01 µM (active) | < 0.01 µM (active) | < 0.01 µM (active) | < 0.01 µM (active) | < 0.01 µM (active) | < 0.01 µM (active) | < 0.01 µM (active) | < 0.01 µM (active) | < 0.01 µM (active) |
| COc1ccc(-c2oc3ccc(C)cc3c(=O)c2O)cc1 | 45 µM (inactive) | > 100 µM (inactive) | 44.3 µM (inactive) | > 100 µM (inactive) | 76.7 µM (inactive) | > 100 µM (inactive) | > 100 µM (inactive) | > 100 µM (inactive) | 9.95 µM (inactive) | > 100 µM (inactive) | > 100 µM (inactive) | > 100 µM (inactive) | > 100 µM (inactive) | > 100 µM (inactive) | 44.4 µM (inactive) | 28.6 µM (inactive) | > 100 µM (inactive) | 57.7 µM (inactive) | > 100 µM (inactive) | > 100 µM (inactive) |
